In publication PMC7918520, “From Data Mining of Chitinophaga sp. Genome to Enzyme Discovery of a Hyperthermophilic Metallocarboxypeptidase” (Microorganisms, 2021) one finds Km and stoichiometry N data, which are given here for five compounds.

Peptide text beside a SMILES is read from it. * marks the point of attachment. Cbz = O=C(OCc1ccccc1)*

One assay concerns the target T1, ChtCP (Chitinophaga sp. CB10, UniProt A0A822ZZF9).
T1 construct: homodimer; motifs 76HHPEL80 and 267HEXXH271
The assay is described as follows: Cd-ninhydrin assay of released amino acids, A500, Michaelis-Menten fit. The assay is classed as biochemical. The conditions noted are these: 50 mM HEPES pH 8.0, 65 °C; substrate 0.195 to 25 mM; metal addition not stated. An excerpt:
Cd-ninhydrin assay of released amino acids, A500, Michaelis-Menten fit on ChtCP

The target in assay [1] is ChtCP, M32 family metallocarboxypeptidase from Chitinophaga sp. CB10 (Chitinophaga sp. CB10). As to the kind of experiment: SEC; HiLoad Superdex 200 16/60, 20 mM Tris-HCl pH 8, 200 mM NaCl, 0.5% glycerol, 4 °C, 1 mL/min; elution volume compared with mass standards. (In gel filtration, larger molecules generally elute earlier.)

T1 sequence (A0A822ZZF9 entry or part of it): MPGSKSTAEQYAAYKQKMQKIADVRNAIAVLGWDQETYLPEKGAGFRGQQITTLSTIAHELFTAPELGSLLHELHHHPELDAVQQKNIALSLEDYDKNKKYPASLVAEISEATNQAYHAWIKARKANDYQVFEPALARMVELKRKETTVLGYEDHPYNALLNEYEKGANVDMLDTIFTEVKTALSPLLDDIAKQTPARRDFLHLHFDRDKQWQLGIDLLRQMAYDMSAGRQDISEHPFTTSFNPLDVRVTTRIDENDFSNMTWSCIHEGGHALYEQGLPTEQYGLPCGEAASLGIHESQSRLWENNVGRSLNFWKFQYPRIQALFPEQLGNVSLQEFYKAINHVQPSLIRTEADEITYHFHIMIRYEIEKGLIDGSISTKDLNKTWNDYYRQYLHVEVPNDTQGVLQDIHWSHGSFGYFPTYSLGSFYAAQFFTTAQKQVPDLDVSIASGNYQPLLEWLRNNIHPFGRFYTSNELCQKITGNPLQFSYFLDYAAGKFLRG

One may read the Km as the concentration of substrate that gives half-maximal velocity. As for `C[C@H](NC(=O)[C@H](C)NC(=O)OCc1ccccc1)C(=O)O` [ZAA, benzyloxycarbonyl Ala-Ala] (Cbz-Ala-Ala-OH), the Km at ChtCP turned out to be 28.1 mM. Still for that read-out and setting: to `C[C@H](NC(=O)OCc1ccccc1)C(=O)N[C@@H](Cc1c[nH]c2ccccc12)C(=O)O` [ZAW, benzyloxycarbonyl Ala-Trp] (Cbz-Ala-Trp-OH) belongs 1.1 mM.

As usually defined, the stoichiometry N is the number of molecules, sites or subunits per partner or assembly. For the compound “ChtCP, M32 family metallocarboxypeptidase from Chitinophaga sp. CB10 (enzyme)”, the stoichiometry N in assay [1] was 2. Take `C[C@H](NC(=O)OCc1ccccc1)C(=O)N[C@@H](CCCNC(=N)N)C(=O)O` [ZAR, benzyloxycarbonyl Ala-Arg] (Cbz-Ala-Arg-OH): the Km on ChtCP was found to be 3.51 mM. Consider `C[C@H](NC(=O)OCc1ccccc1)C(=O)N[C@@H](CC(N)=O)C(=O)O` [ZAN, benzyloxycarbonyl Ala-Asn] (Cbz-Ala-Asn-OH), for which the Km on ChtCP amounted to 34.1 mM.
